Data from ChEMBL document CHEMBL3822442, “Synthesis and Pharmacological Characterization of Novel Glucagon-like Peptide-2 (GLP-2) Analogues with Low Systemic Clearance” (J Med Chem, 2016).
The source made the active and inactive calls. The rule behind the calls is not given here.

Legend:
[1] = target: T1, Glucagon-like peptide 2 receptor (Homo sapiens, UniProt O95838); experiment: Agonist activity at human GLP2R expressed in HEK293 cells after 5 hrs by luciferase reporter gene assay; format: cell-based
T1 sequence (O95838 whole entry): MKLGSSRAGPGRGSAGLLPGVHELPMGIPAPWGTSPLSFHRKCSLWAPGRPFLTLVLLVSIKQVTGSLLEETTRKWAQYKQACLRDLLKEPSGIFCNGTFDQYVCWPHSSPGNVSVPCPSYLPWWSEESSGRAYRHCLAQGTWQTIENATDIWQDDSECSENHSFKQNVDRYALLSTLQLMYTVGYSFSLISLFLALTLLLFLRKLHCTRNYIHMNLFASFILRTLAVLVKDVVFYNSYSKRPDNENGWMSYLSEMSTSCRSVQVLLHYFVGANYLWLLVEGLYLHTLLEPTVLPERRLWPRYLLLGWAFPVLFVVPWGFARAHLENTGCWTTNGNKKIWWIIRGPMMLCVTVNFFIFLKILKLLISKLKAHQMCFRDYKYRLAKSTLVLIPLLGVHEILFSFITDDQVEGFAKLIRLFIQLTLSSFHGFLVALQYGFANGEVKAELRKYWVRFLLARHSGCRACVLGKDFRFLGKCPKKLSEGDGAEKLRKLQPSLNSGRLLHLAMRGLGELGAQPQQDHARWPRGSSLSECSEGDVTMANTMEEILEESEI

[2] = target: Glucagon-like peptide 1 receptor (Homo sapiens, UniProt P43220); experiment: Agonist activity at human GLP1R expressed in HEK293 cells after 5 hrs by luciferase reporter gene assay; format: cell-based
HEK293 = experiment: Selectivity ratio of EC50 for human GLP1R expressed in HEK293 cells to EC50 for human GLP2R expressed in HEK293; format: cell-based
[3] = Systemic clearance in Sprague-Dawley rat at 0.2 mg/kg, iv through cassette dosing measured up to 300 mins by LC/MS/MS analysis; format: ADME, organism-based; conditions: in vivo
[4] = target: Glucagon receptor (Homo sapiens) (UniProt P47871); experiment: Agonist activity at human GCGR expressed in HEK293 cells after 5 hrs by luciferase reporter gene assay; format: cell-based
Sequence of Glucagon receptor (Homo sapiens) (P47871 whole entry): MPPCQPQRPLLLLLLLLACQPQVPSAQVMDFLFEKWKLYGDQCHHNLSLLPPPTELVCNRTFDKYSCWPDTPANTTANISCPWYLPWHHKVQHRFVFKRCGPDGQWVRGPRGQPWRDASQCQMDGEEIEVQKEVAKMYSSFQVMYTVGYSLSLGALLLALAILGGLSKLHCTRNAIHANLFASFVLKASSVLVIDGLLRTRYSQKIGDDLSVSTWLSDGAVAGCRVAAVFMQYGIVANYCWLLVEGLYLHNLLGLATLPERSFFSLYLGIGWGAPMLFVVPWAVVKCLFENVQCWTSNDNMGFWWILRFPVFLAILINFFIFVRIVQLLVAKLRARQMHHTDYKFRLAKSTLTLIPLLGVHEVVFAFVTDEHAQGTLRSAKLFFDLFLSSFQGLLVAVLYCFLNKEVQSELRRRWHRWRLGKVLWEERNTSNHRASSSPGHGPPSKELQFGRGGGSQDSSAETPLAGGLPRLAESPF

Sequence of Glucagon-like peptide 1 receptor (P43220 whole entry): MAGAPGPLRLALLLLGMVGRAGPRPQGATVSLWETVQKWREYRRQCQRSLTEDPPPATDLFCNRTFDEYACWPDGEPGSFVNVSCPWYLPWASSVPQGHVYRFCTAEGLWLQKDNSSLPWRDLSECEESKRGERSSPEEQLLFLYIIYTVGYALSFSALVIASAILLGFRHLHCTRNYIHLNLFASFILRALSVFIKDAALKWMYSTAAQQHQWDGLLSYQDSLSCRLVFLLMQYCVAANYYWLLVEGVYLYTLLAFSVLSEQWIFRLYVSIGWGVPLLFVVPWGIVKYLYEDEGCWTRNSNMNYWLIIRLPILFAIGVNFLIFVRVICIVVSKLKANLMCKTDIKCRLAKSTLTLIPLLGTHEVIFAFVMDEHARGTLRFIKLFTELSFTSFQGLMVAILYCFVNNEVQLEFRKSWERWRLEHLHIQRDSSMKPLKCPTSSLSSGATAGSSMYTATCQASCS

Structure (SMILES) | EC50 [1] [nM] | EC50 [2] [nM] | clearance [3] [mL/min/kg] | Activity [4] | Ratio EC50 (HEK293)
CCCCC(NC(=O)[C@H](CCC(=O)O)NC(=O)[C@H](CC(=O)O)NC(=O)[C@H](CO)NC(=O)[C@H](Cc1ccccc1)NC(=O)[C@H](CO)NC(=O)CNC(=O)[C@H](CC(=O)O)NC(=O)CNC(=O)[C@@H](N)Cc1cnc[nH]1)C(=O)N[C@H](Cc1cnc[nH]1)C(=O)N[C@H](C(=O)N[C@H](C(=O)N[C@@H](CC(C)C)C(=O)N[C@@H](CC(=O)O)C(=O)N[C@@H](CC(N)=O)C(=O)N[C@@H](CC(C)C)C(=O)N[C@@H](C)C(=O)N[C@@H](C)C(=O)N[C@@H](CCCNC(=N)N)C(=O)N[C@@H](CC(=O)O)C(=O)N[C@@H](Cc1ccccc1)C(=O)N[C@H](C(=O)N[C@@H](CC(N)=O)C(=O)N[C@@H](Cc1c[nH]c2ccccc12)C(=O)N[C@@H](CC(C)C)C(=O)N[C@H](C(=O)N[C@@H](CCC(N)=O)C(=O)N[C@H](C(=O)N[C@@H](CCCCN)C(N)=O)[C@@H](C)O)[C@@H](C)CC)[C@@H](C)CC)[C@@H](C)CC)[C@@H](C)O (stereo partly drawn) | 0.2 | > 1000 | 0.73 | inactive | > 5000
CCCCC(NC(=O)[C@H](CCC(=O)O)NC(=O)[C@H](CC(=O)O)NC(=O)[C@H](CO)NC(=O)[C@H](Cc1ccccc1)NC(=O)[C@H](CO)NC(=O)CNC(=O)[C@H](CC(=O)O)NC(=O)CNC(=O)[C@@H](N)Cc1cnc[nH]1)C(=O)N[C@H](Cc1ccccc1)C(=O)N[C@H](C(=O)N[C@H](C(=O)N[C@@H](CC(C)C)C(=O)N[C@@H](CC(=O)O)C(=O)N[C@@H](Cc1ccc(O)cc1)C(=O)N[C@@H](CC(C)C)C(=O)N[C@@H](C)C(=O)N[C@@H](C)C(=O)N[C@@H](CCCNC(=N)N)C(=O)N[C@@H](CC(=O)O)C(=O)N[C@@H](Cc1ccccc1)C(=O)N[C@H](C(=O)N[C@@H](CC(N)=O)C(=O)N[C@@H](Cc1c[nH]c2ccccc12)C(=O)N[C@@H](CC(C)C)C(=O)N[C@H](C(=O)N[C@@H](CCC(N)=O)C(=O)N[C@H](C(=O)N[C@@H](CCCCN)C(N)=O)[C@@H](C)O)[C@@H](C)CC)[C@@H](C)CC)[C@@H](C)CC)[C@@H](C)O (stereo partly drawn) | 0.07 | 90 | 0.48 |  | 1200
CCCCC(NC(=O)[C@H](CCC(=O)O)NC(=O)[C@H](CC(=O)O)NC(=O)[C@H](CO)NC(=O)[C@H](Cc1ccccc1)NC(=O)[C@H](CO)NC(=O)CNC(=O)[C@H](CC(=O)O)NC(=O)CNC(=O)[C@@H](N)Cc1cnc[nH]1)C(=O)N[C@H](Cc1ccccc1)C(=O)N[C@H](C(=O)N[C@H](C(=O)N[C@@H](CC(C)C)C(=O)N[C@@H](CC(=O)O)C(=O)N[C@@H](Cc1ccccc1)C(=O)N[C@@H](CC(C)C)C(=O)N[C@@H](C)C(=O)N[C@@H](C)C(=O)N[C@@H](CCCNC(=N)N)C(=O)N[C@@H](CC(=O)O)C(=O)N[C@@H](Cc1ccccc1)C(=O)N[C@H](C(=O)N[C@@H](CC(N)=O)C(=O)N[C@@H](Cc1c[nH]c2ccccc12)C(=O)N[C@@H](CC(C)C)C(=O)N[C@H](C(=O)N[C@@H](CCC(N)=O)C(=O)N[C@H](C(=O)N[C@@H](CCCCN)C(=O)N[C@H](C(=O)N[C@H](C(=O)N[C@@H](CC(=O)O)C(N)=O)[C@@H](C)O)[C@@H](C)CC)[C@@H](C)O)[C@@H](C)CC)[C@@H](C)CC)[C@@H](C)CC)[C@@H](C)O (stereo partly drawn) | 0.06 | > 1000 | 0.24 |  | > 16000
CCCCC(NC(=O)[C@H](CCC(=O)O)NC(=O)[C@H](CC(=O)O)NC(=O)[C@H](CO)NC(=O)[C@H](Cc1ccccc1)NC(=O)[C@H](CO)NC(=O)CNC(=O)[C@H](CC(=O)O)NC(=O)CNC(=O)[C@@H](N)Cc1cnc[nH]1)C(=O)N[C@H](Cc1cccs1)C(=O)N[C@H](C(=O)N[C@H](C(=O)N[C@@H](CC(C)C)C(=O)N[C@@H](CC(=O)O)C(=O)N[C@@H](Cc1ccccc1)C(=O)N[C@@H](CC(C)C)C(=O)N[C@@H](C)C(=O)N[C@@H](C)C(=O)N[C@@H](CCCNC(=N)N)C(=O)N[C@@H](CC(=O)O)C(=O)N[C@@H](Cc1ccccc1)C(=O)N[C@H](C(=O)N[C@@H](CC(N)=O)C(=O)N[C@@H](Cc1c[nH]c2ccccc12)C(=O)N[C@@H](CC(C)C)C(=O)N[C@H](C(=O)N[C@@H](CCC(N)=O)C(=O)N[C@H](C(=O)N[C@@H](CCCCN)C(=O)N[C@H](C(=O)N[C@H](C(=O)N[C@@H](CC(=O)O)C(N)=O)[C@@H](C)O)[C@@H](C)CC)[C@@H](C)O)[C@@H](C)CC)[C@@H](C)CC)[C@@H](C)CC)[C@@H](C)O (stereo partly drawn) | 0.07 | > 1000 | 0.15 |  | > 14000

Compounds with a lower EC50 [1], results first:

EC50 [1] [nM] | EC50 [2] [nM] | clearance [3] [mL/min/kg] | Activity [4] | Structure (SMILES) | Ratio EC50 (HEK293)
0.05 | > 1000 | 0.28 |  | CCCCC(NC(=O)[C@H](CCC(=O)O)NC(=O)[C@H](CC(=O)O)NC(=O)[C@H](CO)NC(=O)[C@H](Cc1ccccc1)NC(=O)[C@H](CO)NC(=O)CNC(=O)[C@H](CC(=O)O)NC(=O)CNC(=O)[C@@H](N)Cc1cnc[nH]1)C(=O)N[C@H](Cc1cccs1)C(=O)N[C@H](C(=O)N[C@H](C(=O)N[C@@H](CC(C)C)C(=O)N[C@@H](CC(=O)O)C(=O)N[C@@H](CC(C)C)C(=O)N[C@@H](CC(C)C)C(=O)N[C@@H](C)C(=O)N[C@H](C(=O)N[C@@H](CCCNC(=N)N)C(=O)N[C@@H](CC(=O)O)C(=O)N[C@@H](Cc1ccccc1)C(=O)N[C@H](C(=O)N[C@@H](CC(N)=O)C(=O)N[C@@H](Cc1c[nH]c2ccccc12)C(=O)N[C@@H](CC(C)C)C(=O)N[C@H](C(=O)N[C@@H](CCC(N)=O)C(=O)N[C@H](C(=O)N[C@@H](CCCCN)C(=O)N[C@H](C(=O)N[C@H](C(=O)N[C@@H](CC(=O)O)C(N)=O)[C@@H](C)O)[C@@H](C)CC)[C@@H](C)O)[C@@H](C)CC)[C@@H](C)CC)[C@@H](C)O)[C@@H](C)CC)[C@@H](C)O (stereo partly drawn) | > 20000
0.04 | > 1000 | 0.27 |  | CCCCC(NC(=O)[C@H](CCC(=O)O)NC(=O)[C@H](CC(=O)O)NC(=O)[C@H](CO)NC(=O)[C@H](Cc1ccccc1)NC(=O)[C@H](CO)NC(=O)CNC(=O)[C@H](CC(=O)O)NC(=O)CNC(=O)[C@@H](N)Cc1cnc[nH]1)C(=O)N[C@H](Cc1ccccc1)C(=O)N[C@H](C(=O)N[C@H](C(=O)N[C@@H](CC(C)C)C(=O)N[C@@H](CC(=O)O)C(=O)N[C@@H](CC(C)C)C(=O)N[C@@H](CC(C)C)C(=O)N[C@@H](C)C(=O)N[C@@H](C)C(=O)N[C@@H](CCCNC(=N)N)C(=O)N[C@@H](CC(=O)O)C(=O)N[C@@H](Cc1ccccc1)C(=O)N[C@H](C(=O)N[C@@H](CC(N)=O)C(=O)N[C@@H](Cc1c[nH]c2ccccc12)C(=O)N[C@@H](CC(C)C)C(=O)N[C@H](C(=O)N[C@@H](CCC(N)=O)C(=O)N[C@H](C(=O)N[C@@H](CCCCN)C(=O)N[C@H](C(=O)N[C@H](C(=O)N[C@@H](CC(=O)O)C(=O)NCc1ccncc1)[C@@H](C)O)[C@@H](C)CC)[C@@H](C)O)[C@@H](C)CC)[C@@H](C)CC)[C@@H](C)CC)[C@@H](C)O (stereo partly drawn) | > 25000
0.04 | 130 | 0.49 |  | CCCCC(NC(=O)[C@H](CCC(=O)O)NC(=O)[C@H](CC(=O)O)NC(=O)[C@H](CO)NC(=O)[C@H](Cc1ccccc1)NC(=O)[C@H](CO)NC(=O)CNC(=O)[C@H](CC(=O)O)NC(=O)CNC(=O)[C@@H](N)Cc1cnc[nH]1)C(=O)N[C@H](Cc1ccccc1)C(=O)N[C@H](C(=O)N[C@H](C(=O)N[C@@H](CC(C)C)C(=O)N[C@@H](CC(=O)O)C(=O)N[C@@H](CC(C)C)C(=O)N[C@@H](CC(C)C)C(=O)N[C@@H](C)C(=O)N[C@H](C(=O)N[C@@H](CCCNC(=N)N)C(=O)N[C@@H](CC(=O)O)C(=O)N[C@@H](Cc1ccccc1)C(=O)N[C@H](C(=O)N[C@@H](CC(N)=O)C(=O)N[C@@H](Cc1c[nH]c2ccccc12)C(=O)N[C@@H](CC(C)C)C(=O)N[C@H](C(=O)N[C@@H](CCC(N)=O)C(=O)N[C@H](C(=O)N[C@@H](CCCCN)C(N)=O)[C@@H](C)O)[C@@H](C)CC)[C@@H](C)CC)[C@@H](C)O)[C@@H](C)CC)[C@@H](C)O (stereo partly drawn) | 3200
0.03 | > 1000 | 0.28 |  | CCCCC(NC(=O)[C@H](CCC(=O)O)NC(=O)[C@H](CC(=O)O)NC(=O)[C@H](CO)NC(=O)[C@H](Cc1ccccc1)NC(=O)[C@H](CO)NC(=O)CNC(=O)[C@H](CC(=O)O)NC(=O)CNC(=O)[C@@H](N)Cc1cnc[nH]1)C(=O)N[C@H](Cc1ccccc1)C(=O)N[C@H](C(=O)N[C@H](C(=O)N[C@@H](CC(C)C)C(=O)N[C@@H](CC(=O)O)C(=O)N[C@@H](CC(C)C)C(=O)N[C@@H](CC(C)C)C(=O)N[C@@H](C)C(=O)N[C@@H](C)C(=O)N[C@@H](CCCNC(=N)N)C(=O)N[C@@H](CC(=O)O)C(=O)N[C@@H](Cc1ccccc1)C(=O)N[C@H](C(=O)N[C@@H](CC(N)=O)C(=O)N[C@@H](Cc1c[nH]c2ccccc12)C(=O)N[C@@H](CC(C)C)C(=O)N[C@H](C(=O)N[C@@H](CCC(N)=O)C(=O)N[C@H](C(=O)N[C@@H](CCCCN)C(=O)N[C@H](C(=O)N[C@H](C(=O)N[C@@H](CC(=O)O)C(=O)NCCCOCCOCCOCCCNC(=O)COCC(N)=O)[C@@H](C)O)[C@@H](C)CC)[C@@H](C)O)[C@@H](C)CC)[C@@H](C)CC)[C@@H](C)CC)[C@@H](C)O (stereo partly drawn) | > 33000
